Reference: US4593106A, “4-[2-(dialkylamino)ethyl]-7-hydroxyisatins” (SmithKline Beckman Corporation, priority 1984, dated 1986)
Like-named read-outs stand apart in the source and are kept apart here.

How the values were obtained:
[1] = system: D2 -receptors; experiment: peripheral D2-agonist selectivity (general statement, no test named); conditions: main locus of action at presynaptic dopaminergic receptors or sympathetic nerve terminals
[2] = molecular target: T1, D2 (Oryctolagus cuniculus, UniProt G1T1Q0); experiment: perfused rabbit ear artery test for D2-agonist activity
T1 construct: perfused rabbit ear artery test; from tissue; host or cells: perfused rabbit ear artery (sympathetic nerve terminals)
T1 sequence (G1T1Q0 1-443): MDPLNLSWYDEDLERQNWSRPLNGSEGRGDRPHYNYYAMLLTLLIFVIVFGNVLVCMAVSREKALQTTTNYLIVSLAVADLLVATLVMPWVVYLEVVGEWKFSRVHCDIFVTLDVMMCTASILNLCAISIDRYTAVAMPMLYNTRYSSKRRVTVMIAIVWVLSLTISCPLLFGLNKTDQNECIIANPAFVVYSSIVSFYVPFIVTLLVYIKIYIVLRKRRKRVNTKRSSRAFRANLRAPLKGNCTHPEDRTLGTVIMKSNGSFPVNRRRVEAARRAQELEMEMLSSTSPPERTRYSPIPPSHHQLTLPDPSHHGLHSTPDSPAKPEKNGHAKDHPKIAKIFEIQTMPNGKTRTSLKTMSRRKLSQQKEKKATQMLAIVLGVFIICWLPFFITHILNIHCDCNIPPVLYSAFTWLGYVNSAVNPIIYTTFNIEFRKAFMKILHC

SMILES	selective peripheral D2-agonist [1]	EC50 [2]	EC50 ([2]; perfused rabbit ear artery test, D2-agonist activity, read-out: EC50)
Br.CCCN(CCC)CCc1ccc(O)c2c1C(=O)C(=O)N2 [4-[2-(di-n-propylamino)ethyl]-7-hydroxyisatin hydrobromide]	selective peripheral D2 -agonists	2 to 7 nM	
CCCN(CCC)CCc1ccc(O)c(O)c1 [N,N-di-n-propyldopamine, reference compound]			50 to 60 nM
